Here are results for 2 compounds from publication PMC3759246 (Bioorganic & medicinal chemistry letters, 2013).

Marks after values point to notes of the source that are not given here.

By EC50 is commonly meant the concentration at which the effect is half-maximal.

For data set [1] the following is noted: cited from earlier work.
In the next data set the test system is WT HIV-1 (IIIB). Nature of the data set: microbe, parasite or virus in culture. As to conditions: Human immunodeficiency virus 1, IIIB, MT2, read-out: EC50 in cell assays.

`Cc1cc(C#N)cc(C)c1Oc1nc(Nc2ccc(C#N)cc2)nc(N)c1Br` [etravirine]: the “Aqueous solubility S” value in data set [1] is reported as “≪ 1 ^b μg/mL”.

Turning to `Cc1ccnc2c1NC(=O)c1cccnc1N2C1CC1` [nevirapine], the EC50 in the data set with WT HIV-1 (IIIB) is roughly 100 nM.
